Read-outs that look alike come from different tables or passages of the source.
How the values were obtained:
[1] = test system: platelet aggregation (ADP-induced); test: in vitro anti-platelet aggregant activity (Born's method, ADP); type: cell-based, rat; settings: for inhibition at 1 µg/mL / inhibition at 5 µg/mL / inhibition at 10 µg/mL: Rattus norvegicus, Platelet, read-out: Inhibition % (platelet aggregation)
Method: This activity was studied in vitro following Born's method (G. W. R. Born, Nature, 194, 937 (1962)) and inducing platelet aggregation with ADP. […] For the aggregation test, 0.2 ml of platelet rich plasma was mixed with a NaCl solution (0.9%) to which the test substance was added up to a final volume of 0.6 ml. Incubation was fixed at 3 minutes at 27° C. After aggregation was induced with ADP, the course of the aggregation was monitored continuously with an Elvi 840 Aggregometer (Elvi Logos--Milan). The antiaggregant effects were determined by the difference in the light transmission of the sample with respect to that of the ADP control. The test compound was compared with aspirin, which has known antiplatelet aggregant activity (H. J. Weiss et al., J. Clin. Inv., 47, 2169 (1968); Platelet Aggregation and Drugs, edited by L. Caprino and E. C. Rossi, page 235, Academic Press (London), 1974).
Table VI reports the inhibition of platelet aggregation with various doses of the compounds tested at a constant ADP concentration.

[2] = test system: p-phenylquinone-induced writhing; test: p-phenylquinone-induced writhing test (analgesic activity); type: in vivo; settings: an hour after administration
Method: (§1) Preparations of the compound were administered orally and/or parenterally in a suspension in 0.59% carboxymethylcellulose in pH neutral physiological saline.
The determination was made an hour after administration of the product. The inhibitory effect on abdominal contractions induced by phenyl-p-quinone was calculated as follows: [formula]
Table IV reports the doses, the administration routes and their effectiveness expressed as % protection.

carragenin-induced edema = carragenin-induced edema test (antinflammatory activity); type: in vivo, rats
Method: as §1
This effect was evaluated with an experimental model reproducing actue inflammation in rats: the carragenin-induced edema test was used, according to the method of C. A. Winter (G. Pharmac. Exp. Ther., 141, 369 (1963)). Table III reports the compounds tested, their concentrations, administration routes and relative percent edema inhibition.

[3] = test system: hyperthermia induced by dry purified beer yeast; test: antipyretic activity, beer yeast-induced hyperthermia; type: in vivo, Wistar strain male albino rats
Method: as §1
This effect was evaluated by inducing hyperthermia in Wistar strain male albino rats with an average weight of 250±10 g, injecting them intraperitoneally with a 10% suspension of dry purified beer yeast (Carlo Erba) in a volume of 10 ml/Kg of body weight, according to the method of S. Wong et al. (J. Pharmac. Exp. Ther., 185 (1), 127 (1973)).

gastric mucosa = test: gastric tolerance (ulcerogenic activity); settings: orally, four consecutive days; for Mean number severity: severity scale 0-5
Method: This was studied by testing ulcerogenic activity in male Wistar rats weighing an average of 180 g, using groups of 10 animals each. Three doses of each substance were used, and one group of animals was treated with vehicle only, in a volume of 10 ml/g body weight. Each dose was administered orally for four consecutive days, and the rats were killed on the fifth day and autopsied. The ulcerogenic effect was evaluated on the following scale:
(1) each hemorrhage point >1 mm was evaluated as 1 lesion
(2) the hemorrhage points <1 were counted as follows:
(b) from 1 to 19 2 lesions
(c) from 1 to 29 3 lesions
(2) gastric mucosa irritation
(3) hemorrhage points <1 mm
(4) hemorrhage points from 1 to 3 mm
(5) hemorrhage points >3 mm
This scale was used to calculate the following index of gastric damage: [formula]

Work on `CC(=O)Oc1ccccc1C(=O)O` [Aspirin, reference compound] yielded an inhibition at 1 µg/mL [1] of 15%, an inhibition at 5 µg/mL [1] of 60% and an inhibition at 10 µg/mL [1] of 100%.
With `COc1ccccc1NC(=O)CNC(=O)Cc1ccc(C(=O)c2ccc(C)cc2)n1C` [Compound 1d] the “anti-platelet aggregant activity (in words)” value [1] was “particularly pronounced anti-platelet aggregant activity”, the inhibition at 1 µg/mL ([1]; 1 γ/ml, ADP 7.08 μmol/l) was 20% and the inhibition at 5 µg/mL ([1]; 5 γ/ml, ADP 7.08 μmol/l) was 70%. The inhibition at 10 µg/mL ([1]; 10 γ/ml, ADP 7.08 μmol/l) was 90%, the Protection % ([2]; i.p., 5 mg/kg) was 29.0% and the Protection % ([2]; i.p., 10 mg/kg) was 60.1%. The Protection % ([2]; i.p., 20 mg/kg) was 73.4%, the Protection % ([2]; os, 5 mg/kg) was 22.9% and the Protection % ([2]; os, 10 mg/kg) was 54.2%. For the same molecule, the Protection % ([2]; os, 20 mg/kg) was 70.1%, the Oedema inhibition % (carragenin-induced edema; i.p., 10 mg/kg, 3 h) was 48.7% and the Oedema inhibition % (carragenin-induced edema; i.p., 10 mg/kg, 6 h) was 36.5%. For the same molecule, the Oedema inhibition % (carragenin-induced edema; i.p., 10 mg/kg, 24 h) was 0.0%, the Oedema inhibition % (carragenin-induced edema; i.p., 50 mg/kg, 3 h) was 59.2% and the Oedema inhibition % (carragenin-induced edema; i.p., 50 mg/kg, 6 h) was 52.0%. The Oedema inhibition % (carragenin-induced edema; i.p., 50 mg/kg, 24 h) was 18.9%, the Oedema inhibition % (carragenin-induced edema; i.p., 100 mg/kg, 3 h) was 78.6% and the Oedema inhibition % (carragenin-induced edema; i.p., 100 mg/kg, 6 h) was 66.3%. For the same molecule, the Oedema inhibition % (carragenin-induced edema; i.p., 100 mg/kg, 24 h) was 30.5%, the Oedema inhibition % (carragenin-induced edema; os, 10 mg/kg, 3 h) was 47.2% and the Oedema inhibition % (carragenin-induced edema; os, 10 mg/kg, 6 h) was 40.0%. For the same molecule, the Oedema inhibition % (carragenin-induced edema; os, 10 mg/kg, 24 h) was 9.0%, the Oedema inhibition % (carragenin-induced edema; os, 50 mg/kg, 3 h) was 58.5% and the Oedema inhibition % (carragenin-induced edema; os, 50 mg/kg, 6 h) was 54.0%. The Oedema inhibition % (carragenin-induced edema; os, 50 mg/kg, 24 h) was 30.0%, the Oedema inhibition % (carragenin-induced edema; os, 100 mg/kg, 3 h) was 77.1% and the Oedema inhibition % (carragenin-induced edema; os, 100 mg/kg, 6 h) was 66.0%. For the same molecule, the Oedema inhibition % (carragenin-induced edema; os, 100 mg/kg, 24 h) was 38.0%, the “antinflammatory, analgesic and antipyretic activity versus ester analogue (4) (in words)” value (carragenin-induced edema; rat, in vivo) was “comparable to that of the ester analogue (4)” and the Temperature decrease % ([3]; i.p., 50 mg/kg, 1 h) was 18.0%. For the same molecule, the Temperature decrease % ([3]; i.p., 50 mg/kg, 2 h) was 26.0%, the Temperature decrease % ([3]; i.p., 50 mg/kg, 3 h) was 39.0% and the Temperature decrease % ([3]; i.p., 75 mg/kg, 1 h) was 30.0%. It also gave a Temperature decrease % ([3]; i.p., 75 mg/kg, 2 h) of 36.1%, a Temperature decrease % ([3]; i.p., 75 mg/kg, 3 h) of 56.1% and a Temperature decrease % ([3]; i.p., 100 mg/kg, 1 h) of 42.0%. For the same molecule, the Temperature decrease % ([3]; i.p., 100 mg/kg, 2 h) was 49.0%, the Temperature decrease % ([3]; i.p., 100 mg/kg, 3 h) was 48.0% and the Temperature decrease % ([3]; os, 50 mg/kg, 1 h) was 16.0%. For the same molecule, the Temperature decrease % ([3]; os, 50 mg/kg, 6 h) was 22.0%, the Temperature decrease % ([3]; os, 50 mg/kg, 24 h) was 30.1% and the Temperature decrease % ([3]; os, 75 mg/kg, 1 h) was 18.0%. It also gave a Temperature decrease % ([3]; os, 75 mg/kg, 6 h) of 28.0%, a Temperature decrease % ([3]; os, 75 mg/kg, 24 h) of 48.2% and a Temperature decrease % ([3]; os, 100 mg/kg, 1 h) of 29.0%. It also gave a Temperature decrease % ([3]; os, 100 mg/kg, 6 h) of 32.0%, a Temperature decrease % ([3]; os, 100 mg/kg, 24 h) of 50.0% and an Index gastric damage (gastric mucosa; 50 mg/kg) of 9. For the same molecule, the “Index gastric damage, signed figure (untitled; difference from Carrier index 8)” value (gastric mucosa; 50 mg/kg) was “+1”, the Mean number lesions (gastric mucosa; 50 mg/kg) was 1 and the Mean number severity (gastric mucosa; 50 mg/kg) was 1. The Index gastric damage (gastric mucosa; 100 mg/kg) was 11, the “Index gastric damage, signed figure (untitled; difference from Carrier index 8)” value (gastric mucosa; 100 mg/kg) was “+3” and the Mean number lesions (gastric mucosa; 100 mg/kg) was 1. The Mean number severity (gastric mucosa; 100 mg/kg) was 2, the Index gastric damage (gastric mucosa; 200 mg/kg) was 12 and the “Index gastric damage, signed figure (untitled; difference from Carrier index 8)” value (gastric mucosa; 200 mg/kg) was “+4”. The Mean number lesions (gastric mucosa; 200 mg/kg) was 2 and the Mean number severity (gastric mucosa; 200 mg/kg) was 2.

— patent US4568690A, “1-Methyl-5-p-methylbenzoylpyrrole-2-acetamidoacetanilides with antiinflammatory, analgesic, antipyretic and anti-platelet aggregant activity” (priority 1983, dated 1986)
